The values below are quoted from earlier work in patent US20230364004A1, “STABLE COMPOSITIONS CONTAINING A CANNABINOID” (ANGROW COMPANY LIMITED, priority 2022, published 2023).

Each structure is given as a SMILES string.

For the series the following is noted: within 24 hours, simulated physiological condition (PH 7.4 and 37° C.).

As to `C=C(C)[C@@H]1CCC(C)=C[C@H]1c1c(O)cc(CCCCC)cc1O` [CBD, cannabidiol], the CBD degraded is 10%.
